Results as given in patent US20050036994A1, “Compounds and methods for downregulating the effects of TGF-beta” (priority 2003, published 2005).

Experiments:
pericellular cathepsin B [1] = test: Pericellular cathepsin B assay with partially purified AHSG or concentrated spent media of infected HEK293 cells (FIG. 8); assay type: biochemical; conditions: for inhibition of pericellular cathepsin B activity: FIG. 8
Description: 50 μl of the cell suspension was added to a black walled 96 well plate (ThermoLabsystems, Part No. 8220, Vantaa, Finland). The appropriate concentration of inhibitors of cathepsin B, purified AHSG or concentrated media were diluted in 5 μl of PAB and the added to the cell suspension in each of the 96 wells. The plate was pre-incubated at 40° C. for 30 min. The reaction was started by adding 50 μl of a 200 μM solution of z-Arg-Arg-AMC (EMD Biosciences Inc, Darmstadt, Germany), a fluorogenic peptide that is lysed by cathhepsin B. This substrate was dissolved in PAB and pre-incubated at 40° C. prior to use. Hydrolytic activity of cathepsin B produces free AMC from the substrate peptide resulting in increased fluorescence. The intensity of fluorescence was measured using ThermoLabsystems Fluoroskan microplate reader with a 355 nm excitation filter and a 420 nm emission filter. The stock solution of z-Arg-Arg-AMC was dissolved in DMSO at the concentration of 10 mM and stored in −80° C. The Cathepsin B specific inhibitors CA-074 and Ac-LVK-CHO (EMD Biosciences Inc., Darmstadt, Germany) were dissolved in H2O at the concentration of 10 mM, aliquoted and stored in −80° C.
HEK 293 cells were subcultured at the cell density of 40% confluence in the morning of the study. […] The next day culture medium was replaced with fresh D-MEM supplemented with 5% FCS and culture for 2 additional days. The culture medium was passed through a filter with the pore size of 0.22 micron and then stored at −80° C. […] A centrifugal filtration unit, NanoSep 100 (Pall Corporation, Ann Arbor, Mich.) were applied to collect the molecular weights lower than 100 kD. The 0.4 ml of the flow through fraction from NanoSep 100 was applied to Nanosep30 and the remaining protein on the filter membrane was re-suspended in 40 μl of PAB (Hank's balanced salt solution without sodium bicarbonate, 0.6 mM MgCl2, 0.6 mM CaCl2, 2 mM 1-cystein and 25 mM PIPES adjusted pH to 7.0) The protein concentration was determined using Bradford reagent (Bio-Rad, Hercules, Calif.). The aliqouts of protein solution was flash frozen by liquid nitrogen and stored in −80° C. prior to use.

pericellular cathepsin B [2] = biological target: T1, pericellular cathepsin B (Mus musculus, UniProt P10605); test: Pericellular cathepsin B assay (z-Arg-Arg-AMC) on transfected LLC cells; assay type: biochemical; conditions: 25 nM inhibitor added to the assay
T1 construct: These cells normally express cathepsin B; endogenous in cells; host or cells: Lewis lung carcinoma (LLC) cells, intact cell suspension, transfected with AHSG or empty vectors (not with cathepsin B)
T1 sequence (P10605 80-333): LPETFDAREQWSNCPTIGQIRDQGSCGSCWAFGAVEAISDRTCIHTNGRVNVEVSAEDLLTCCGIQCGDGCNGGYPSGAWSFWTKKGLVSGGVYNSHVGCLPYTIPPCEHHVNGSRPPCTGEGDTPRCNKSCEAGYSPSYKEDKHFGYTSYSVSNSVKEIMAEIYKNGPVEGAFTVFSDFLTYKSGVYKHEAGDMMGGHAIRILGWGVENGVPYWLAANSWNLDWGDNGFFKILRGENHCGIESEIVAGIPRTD
From the text: In this example we used the fluorogenic substrate called z-Arg-Arg-AMC. […] The ability of this substrate to stay outside the cell allowed us to measure the enzymatic activity of pericellular cathepsin B (Hulkower, K. I. et al Eur J Biochem 267:4165 (2000). Many human and mouse cancer cell lines have cathepsin B activity on the cell surface.
To measure the effect of AHSG on the activity of cathepsin B, we expressed AHSG using expression vectors, pAAV-AHSG or pCDNA-AHSG that were used to transfect Lewis lung carcinoma (LLC) cells. These cells normally express cathepsin B (Hulkower, K. I. et al Eur J Biochem 267:4165 (2000)). Thus the addition of the substrate to the cells transfected with a non-specific vector lead to lysis of the peptide and the resulting level of cathepsin B activity was arbitrarily set at 100 (FIG. 7, left column). Cathepsin B activity following transfection with pAAV-AHSG was roughly 25% lower than that in control cells (FIG. 7, second column). Next 25 nM of a known inhibitor of cathepsin B, CA 074 was added to the assay. […] Despite the low transfection efficiency of LLC cells that ranged from 10 to 20% as measured using in situ staining of β-galactosidase activity, the observed reduction of the cathepsin B in the presence of AHSG supports the present invention that expression of AHSG suppresses cathepsin B activity on the cell surface. […]

CCCNC(=O)[C@H]1O[C@@H]1C(=O)N[C@H](C(=O)N1CCC[C@H]1C(=O)O)[C@@H](C)CC [CA-074]
inhibition of pericellular cathepsin B activity (pericellular cathepsin B [1]): inhibited activity of cathepsin B | inhibition of cathepsin B activity (words) (pericellular cathepsin B [2]): inhibited cathepsin B activity | inhibition of cathepsin B activity (words) (pericellular cathepsin B [2]; listed as CA 074): expected inhibition of cathepsin B activity

B1: purchased AHSG: purchased AHSG (Sigma) partially purified from human plasma (protein, UniProt P02765 19-300; P02765 341-367, looked up)
Alpha-2-HS-glycoprotein chain … 1: APHGPGLIYRQPNCDDPETEEAALVAIDYINQNLPWGYKHTLNQIDEVKVWPQQPSGELFEIEIDTLETTCHVLDPTPVARCSVRQLKEHAVEGDCDFQLLKLDGKFSVVYAKCDSSPDSAEDVRKVCQDCPLLAPLNDTRVVHAAKAALAAFNAQNNGSNFQLEEISRAQLVPLPPSTYVEFTVSGTDCVAKEATEAAKCNLLAEKQYGFCKATLSEKLGGAEVAVTCMVFQTQPVSSQPQPEGANEAVPTPVVDPDAPPSPPLGAPGLPPAGSPPDSHVL
Alpha-2-HS-glycoprotein chain … 2: TVVQPSVGAAAGPVVPPCPGRIRHFKV
inhibition of pericellular cathepsin B activity (pericellular cathepsin B [1]): inhibited completely the activity of cathepsin B | inhibition of pericellular cathepsin B activity (pericellular cathepsin B [1]; listed as AHSG purchased from Sigma): significant inhibition of pericellular cathepsin B activity | amount of protein required for complete inhibition, relative to the concentration of AHSG in the blood of adults (0.3 to 0.6 mg/ml) (pericellular cathepsin B [1]; one of the lots): less than 10%
